In BindingDB's records for doi:10.1021/jm970110p (Universit&#233, 1998):

Target: Reverse transcriptase/RNaseH (Human immunodeficiency virus 1, UniProt Q72547)
Test: Inhibitory concentration against HIV-1 reverse transcriptase

EC50 [nM] | SMILES
42 | CC(C)c1c(Cc2ccccc2)[n]([Au])c(=O)[nH]c1=O [6-Benzyl-5-isopropyl-1-aurus-1H-pyrimidine-2,4-dione]
210 | CCc1c(Cc2ccccc2)[n]([Au])c(=O)[nH]c1=O [6-Benzyl-5-ethyl-1-aurus-1H-pyrimidine-2,4-dione]
